Test results: patent US20100113527A1, “CRYSTALLINE FORMS OF DEXLANSOPRAZOLE” (Teva Pharmaceutical Industries Ltd., priority 2008, published 2010)

Test: Stability of crystalline form against polymorphic transformation at 60% relative humidity (PXRD comparison, FIG. 2)
Assay type: physicochemical
From the text: FIG. 2 illustrates an X-ray powder diffraction pattern of form X of dexLansoprazole compared with the same form X after a week at 60% relative humidity.
As used herein in connection with form X, the term “stable” refers to stability against transformation, in which no more than about 20% of a polymorphic form transforms to another form under no less than about 60% relative humidity at about room temperature. When made according to the preferred embodiments of the present invention, less than 20% of form X transforms to any other form upon exposure to a RH of 60% at room temperature for a period of 7 days.
For ARL Powder diffractometer (All XRD Figures except FIG. 13):
Sample: Spin/Oscillate mode Range: 2-40 degrees two-theta Scan mode: Continuous scan Step size: 0.05 deg Scan rate: 3 deg./min

Cc1c(OCC(F)(F)F)ccnc1C[S@@+]([O-])c1nc2ccccc2[nH]1 [form X, (R)-2-[(3-methyl-4-(2,2,2-trifluoroethoxy)pyridin-2-yl)methylsulfinyl]-1H-benzoimidazole]
amount of the form that transforms to any other form (exposure to RH of 60% at room temperature for 7 days): less than 20% | stability of the crystalline form (PXRD pattern after storage) (relative humidity of 60%, room temperature, 7 days, PXRD, FIG. 2): retains its PXRD pattern
